Laboratory results from US11046715B2, “Boronic derivatives of hydroxamates as anticancer agents” (Xavier University of Louisiana, priority 2016, dated 2021).
Values joined by “and” are separate entries in the source; they are usually repeats but may differ in a detail not shown here. Identical values can stand only once.

Assays:
[1] = test system: NCI-H460: human non-small-cell lung cancer; test: In vitro cytotoxicity / antiproliferation, NCI-H460; assay type: cell-based; conditions: NCI-H460, read-out: Antiproliferation activity (IC50)
[2] = test system: MDA-MB-231: human breast adenocarcinoma; test: In vitro cytotoxicity / antiproliferation, MDA-MB-231; assay type: cell-based; conditions: MDA-MB-231, read-out: Antiproliferation activity (IC50)
[3] = test system: HeLa: human epitheloid cervix carcinoma; test: In vitro cytotoxicity / antiproliferation, HeLa; assay type: cell-based
Experimental: (§1) The in vitro cytotoxicity of boronic derivatives of hydroxamates was tested against various cancer cell lines; the results are provided in Table 1.

[4] = test system: A549: human non-small-cell lung carcinoma; test: In vitro cytotoxicity / antiproliferation, A549; assay type: cell-based
Experimental: as §1

[5] = test system: SK-OV-3: human ovarian cancer; test: In vitro cytotoxicity / antiproliferation, SK-OV-3; assay type: cell-based
[6] = test system: SK-MEL-28: human melanoma; test: In vitro cytotoxicity / antiproliferation, SK-MEL-28; assay type: cell-based; conditions: SK-MEL-28, read-out: Antiproliferation activity (IC50)
[7] = test system: MCF-7 tumor xenograft; test: In vivo efficacy in MCF-7 tumor xenograft model in mice; conditions: 10 mg/kg/day subcutaneous; for effect on tumor growth (in words): compared with vehicle group; for average tumor volume: day 15; for Tumor volume: day 24, MCF-7 xenograft mice
[8] = test system: MCF-7: human breast adenocarcinoma; test: In vitro cytotoxicity / antiproliferation, MCF-7; assay type: cell-based; conditions: MCF7
Experimental: as §1

[9] = test system: MDA-MB-231 cells; test: In vitro pharmacokinetics: concentrations in culture media after incubation with MDA-MB-231 cells; assay type: in vitro ADME, human; conditions: 1-day incubation with MDA-MB-231 cells
[10] = Concentration in tumor tissue of MCF-7 xenograft mice; assay type: in vivo; conditions: after 24 days at 10 mg/kg/day subcutaneous
[11] = In vivo pharmacokinetics in mice after intraperitoneal injection (plasma); conditions: single dose 10 mg/kg IP
Experimental: Pharmacokinetic studies of compound 3 in mice were conducted.

[12] = target: Histone deacetylase (HDAC); test: Histone deacetylase activity assay kit (Fluorometric) ab156064; assay type: biochemical; conditions: 20 min incubation; read-out: HDAC inhibitory activity EC50

| Compound | IC50 [1] | IC50 [2] | IC50 [3] | IC50 [4] | IC50 [5] | IC50 [6] | further results |
| --- | --- | --- | --- | --- | --- | --- | --- |
| CC1=C(CC(=O)O)c2cc(F)ccc2/C1=C\c1ccc([S+](C)[O-])cc1 (stereo not drawn) [Sulindac, reference compound] | 41.9 µM | 1400 µM | 458 µM | 20400 µM | 109 µM | 1400 µM |  |
| CC1=C(CC(=O)NOCc2ccc(B3OC(C)(C)C(C)(C)O3)cc2)c2cc(F)ccc2/C1=C/c1ccc([S+](C)[O-])cc1 (stereo not drawn) [Compound 11] | 1.01 µM | 20.1 µM | 277 µM | 696 µM | 19.4 µM | 77.4 µM |  |
| CC1(C)OB(c2ccc(CONC(=O)c3cc4ccccc4oc3=O)cc2)OC1(C)C [Compound 15] |  | > 10 µM | > 10 µM | > 10 µM |  |  |  |
| O=C(/C=C/c1cccc(S(=O)(=O)Nc2ccccc2)c1)NO [Belinostat, reference compound] |  | 0.0616 µM | 0.0865 µM | 0.0766 µM |  |  | TGI (inhibition of tumor growth) ([7]; 24 days): 77.7%; effect on tumor growth (in words) [7]: potent inhibitory activity against the growth of tumor; average tumor volume [7]: 167 mm^3; Tumor volume [7]: 194 mm^3 and 193.68 ± 29.79 mm^3; IC50 [8]: 0.0964 µM |
| Cn1c(CCCC(=O)O)nc2cc(N(CCCl)CCCl)ccc21 [Bendamustine, reference compound] | 45.3 µM | 37.5 µM |  |  | 33.4 µM | 149 µM |  |
| Cn1c(CCCC(=O)NOCc2ccc(B3OC(C)(C)C(C)(C)O3)cc2)nc2cc(N(CCCl)CCCl)ccc21 [Compound 7] | 1.22 µM | 3.33 µM |  |  | 1.84 µM | 0.373 µM |  |
| COc1ccc(C(=O)NOCc2ccc(B3OC(C)(C)C(C)(C)O3)cc2)cc1OC [Compound 16] |  | > 10 µM | > 10 µM | > 10 µM |  |  |  |
| CC1(C)OB(c2ccc(CONC(=O)CCCCCCC(=O)Nc3ccccc3)cc2)OC1(C)C [Compound 1] |  | 423 µM |  |  | 55.2 µM | 13.5 µM |  |
| COc1cc(C(=O)NOCc2ccc(B3OC(C)(C)C(C)(C)O3)cc2)cc(OC)c1OC [Compound 13] |  | > 10 µM | > 10 µM | > 10 µM |  |  |  |
| CC(C)Cc1ccc(C(C)C(=O)NOCc2ccc(B3OC(C)(C)C(C)(C)O3)cc2)cc1 (stereo not drawn) [Compound 14] |  | > 10 µM | > 10 µM | > 10 µM |  |  |  |
| CN(C)Cc1ccc(S(=O)(=O)n2ccc(/C=C/C(=O)NOCc3ccc(B4OC(C)(C)C(C)(C)O4)cc3)c2)cc1 [Compound 5] |  | > 10 µM | > 10 µM | > 10 µM |  |  |  |
| CCN(CC)Cc1ccc2cc(COC(=O)Nc3ccc(C(=O)NOCc4ccc(B5OC(C)(C)C(C)(C)O5)cc4)cc3)ccc2c1 [Compound 4] | 0.154 µM | 0.321 µM |  |  | 0.296 µM | 0.377 µM |  |
| COc1ccc(C(=O)NOCc2ccc(B3OC(C)(C)C(C)(C)O3)cc2)cc1 [Compound 10] |  | > 10 µM | > 10 µM | > 10 µM |  |  |  |
| CCN(CC)Cc1ccc2cc(COC(=O)Nc3ccc(C(=O)NO)cc3)ccc2c1 [Givinostat, reference compound] | 0.103 µM | 0.119 µM |  |  |  | 0.0913 µM |  |
| CC1(C)OB(c2ccc(CONC(=O)/C=C/c3cccc(S(=O)(=O)Nc4ccccc4)c3)cc2)OC1(C)C [Compound 3] | 0.43 µM | 0.303 µM | 0.273 µM | 0.453 µM |  | 0.678 µM | conversion of compound 3 in culture media (in words) [9]: completely converted to compound 95 and partially to belinostat; T/C (tumor volume ratio) ([7]; 24 days): 14.6%; TGI (inhibition of tumor growth) ([7]; 24 days): 85.3%; effect on tumor growth (in words) [7]: resulted in tumor remission; effect on tumor growth (in words) ([7]; listed as compound 3): potent inhibitory activity against the growth of tumor; average tumor volume [7]: 153 mm^3; Tumor volume [7]: 127 mm^3; concentration of belinostat and compound 95 added together in tumor tissue, relative to belinostat group [10]: five times greater; IC50 [8]: 1.46 µM; maximum concentration of compound 95 relative to maximum concentration achieved by belinostat [11]: about forty times; EC50 [12]: 0.35 µM |
